The values that follow come from patent US7312358B2, “Pharmaceutically active sulfanilide derivatives” (Laboratoires Serono SA, priority 2000, dated 2007).

As usually defined, the IC50 is the point on the concentration scale where inhibition reaches its midpoint. Read a low IC50 as inhibition by little substance.

This assay deals with hV1a (Homo sapiens, UniProt P37288). The assay is described as follows: Inhibition of vasopressin-mediated Ca2+-mobilization by FLIPR (CHO cells expressing hV1a). The class given is cell-based. Also on record: expressed in transfected cells; host or cells: CHO cells. Conditions: fluo-4, AVP 40 nM. The source says: d) Functional Assay No. 1: Inhibition of Vasopressin-Mediated Ca^2+-mobilization by FLIPR (Fluorescent Imaging Plate Reader)
Chain of hV1a (P37288 whole entry): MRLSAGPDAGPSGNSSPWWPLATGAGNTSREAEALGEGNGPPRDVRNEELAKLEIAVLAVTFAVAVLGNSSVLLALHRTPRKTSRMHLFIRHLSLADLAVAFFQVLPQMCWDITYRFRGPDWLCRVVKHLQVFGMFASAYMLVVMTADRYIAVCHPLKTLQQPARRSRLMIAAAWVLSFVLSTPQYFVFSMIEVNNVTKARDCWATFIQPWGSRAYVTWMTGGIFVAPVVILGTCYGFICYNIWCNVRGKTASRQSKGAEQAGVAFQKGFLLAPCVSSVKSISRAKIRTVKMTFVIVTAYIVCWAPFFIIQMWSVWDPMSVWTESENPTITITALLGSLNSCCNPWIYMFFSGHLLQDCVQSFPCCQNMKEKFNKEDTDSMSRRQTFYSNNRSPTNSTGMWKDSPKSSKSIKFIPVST
FLIPR is a machine for fluorescence imaging using a laser that is capable of illuminating a 96-well plate and a means of simultaneously reading each well thus enabling rapid measurements on a large number of samples.
This assay intends to show the inhibition of the AVP/V1a-R mediated calcium mobilisation—being necessary to cause uterine contractions—by using test compounds of formula (1).
Preparing the plates: FLIPR-plates were pre-coated with PLL (Poly-L-Lysine) 10 μg/ml+0.1% gelatine to attach the CHO cells (expessing hV1a) for 30 min up to 2 days at 37° C. The cells were plated out into 96-well plates (60000 cells/well).
Labelling with fluo-4: 50 μg fluo-4 (fluorescent marker) were dissolved in 20 μl pluronic acid (20% in DMSO). The dissolved fluo-4 was then diluted in 10 ml DMEM (Dubecco's […] Medium-F12 medium without FCS (Fetal Calf Serum). The medium was removed from the plates, followed by one wash with DMEM-F12 medium. Now, 100 μl of the DMEM-F12 medium containing fluo-4 were added and the cells incubated for 1-1.5 h (CHO-cells). The cells now contain the fluorescent marker.
Buffer: 145 mM NaCl, 5 mM KCl, 1 mM MgCl2, 10 mM Hepes, 10 mM Glucose, EGTA (Ethylene-bis oxyethylene nitrilo tetraacetic acid). Adjust to pH 7.4.
Performance of the assay: A minimum of 80 μl/well of antagonists (5×) in the above buffer (1×) were prepared (96-well plates). The antagonists were added to the well-plates at different concentrations (30 μM, 10 μM, 1 μM, 300 nM, 100 nM, 10 nM, 1 nM, 100 pM, 10 pM).
AVP is added at a concentration of 40 nM.
The fluorescent marker being sensitive to the amount of Ca^2+ mobilized within the cell may be quantified by the FLIPR machine.
The activities of the sulfanilide derivatives according to formula I were assessed using the above described in vitro biological assay. The values refer to the capacity of the example compounds according to formula I to effectively antagonize AVP-induced intracellular Ca^2+-mobilization mediated by the VIa-receptor.
`COc1ccc(/C=N/NC(=O)CN(c2cccc(Br)c2)S(=O)(=O)c2ccccc2)cc1OC` [N-(3-Bromo-phenyl)-N-(3,4-dimethoxy-benzylidene-hydrazinocarbonylmethyl)-benzenesulfonamide]: the 50% inhibitory concentration (IC50) was found to be 0.44 µM. `COc1ccc(/C=N/NC(=O)CN(c2cccc(Cl)c2)S(=O)(=O)c2ccccc2)cc1OC` [N-(3-Chloro-phenyl)-N-(3,4-dimethoxy-benzylidene-hydrazinocarbonylmethyl)-benzenesulfonamide] returned an IC50 of 0.55 µM. The molecule `C/C(=N/NC(=O)CN(c1cccc(Cl)c1)S(=O)(=O)c1ccccc1)c1ccccc1O` [N-(3-Chloro-phenyl)-N-[1-(2-hydroxy-phenyl)-ethylidene-hydrazinocarbonylmethyl]-benzenesulfonamide] showed an IC50 of 0.37 µM.
